Common to all, as to assay: Qube automated patch-clamp assay, inhibition of sodium current
Holding throughout (type): cell-based
A general note: The patch-clamp technique gives a direct electrical read-out from membranes.

For test [1], the target named is T1, human Nav1.6 channels stably expressed in HEK 293 cells (Homo sapiens, UniProt Q9UQD0).
T1 construct: expressed in transfected cells; host or cells: HEK 293
As to conditions: holding potential −65 mV; max concentration tested 33750 nM. The method, then: (§1) Qube™ Experimental Procedure:
(§2) Compounds were tested on human Nav1.7 and Nav1.6 channels stably expressed in HEK 293 cells. […] Cells were sealed on a planar substrate using the multihole technology. Cells expressing human Nav1.7 channels were held at −75 mV or −80 mV. Cells expressing human Nav1.6 channels were held at −65 mV. A train of 6 consecutive test pulses to −10 mV, preceded by 8 s prepulses to −115 mV, was applied at a frequency of 0.1 Hz before and after compound addition. Cells in each Qchip well were incubated in compound for 5 minutes before measuring inhibition. Peak currents were measured in control conditions and after compound addition. The following recording solutions were used (mM). External Nav1.6: 150 NaCl, 2 CaCl2), 5 KCl, 1 Mg Cl2, 10 HEPES, 12 Dextrose; external Nav1.7: 40 NaCl, 120 NMDG, 1 KCl, 0.5 MgCl2, 5 HEPES, 2.7 CaCl2); internal: 120 CsF, 30 CsCl, 10 EGTA, 5 HEPES, 5 NaF, 2 MgCl2. Compounds were prepared as 10 mM stock solutions in DMSO. 10 point compound titrations were generated using the Echo acoustic liquid handling instrument and glass coated 384 well plates. The final DMSO concentration in the assay was 0.3%. For all electrophysiology experiments, offline analysis was used to determine percent inhibition as a function of drug concentration. IC50 values were determined by fitting to the Hill equation.
(§3) The various compounds in EXAMPLES 1 through 43 and TABLE 2 exemplified above were assayed for activity and selectivity using the foregoing Qube® technique. The results are reported in TABLE 3 in a format expressing the identification of the compound with reference EXAMPLE followed by the observed potency in nM for NaV1.7, NaV1.6 and NaV1.5. NA signifies not applicable and the max concentration tested is 33750 nM.

In test [2] the target is T2, human Nav1.7 channels stably expressed in HEK 293 cells (Homo sapiens, UniProt Q15858).
T2 construct: expressed in transfected cells; host or cells: HEK 293
T2 sequence (Q15858 whole entry): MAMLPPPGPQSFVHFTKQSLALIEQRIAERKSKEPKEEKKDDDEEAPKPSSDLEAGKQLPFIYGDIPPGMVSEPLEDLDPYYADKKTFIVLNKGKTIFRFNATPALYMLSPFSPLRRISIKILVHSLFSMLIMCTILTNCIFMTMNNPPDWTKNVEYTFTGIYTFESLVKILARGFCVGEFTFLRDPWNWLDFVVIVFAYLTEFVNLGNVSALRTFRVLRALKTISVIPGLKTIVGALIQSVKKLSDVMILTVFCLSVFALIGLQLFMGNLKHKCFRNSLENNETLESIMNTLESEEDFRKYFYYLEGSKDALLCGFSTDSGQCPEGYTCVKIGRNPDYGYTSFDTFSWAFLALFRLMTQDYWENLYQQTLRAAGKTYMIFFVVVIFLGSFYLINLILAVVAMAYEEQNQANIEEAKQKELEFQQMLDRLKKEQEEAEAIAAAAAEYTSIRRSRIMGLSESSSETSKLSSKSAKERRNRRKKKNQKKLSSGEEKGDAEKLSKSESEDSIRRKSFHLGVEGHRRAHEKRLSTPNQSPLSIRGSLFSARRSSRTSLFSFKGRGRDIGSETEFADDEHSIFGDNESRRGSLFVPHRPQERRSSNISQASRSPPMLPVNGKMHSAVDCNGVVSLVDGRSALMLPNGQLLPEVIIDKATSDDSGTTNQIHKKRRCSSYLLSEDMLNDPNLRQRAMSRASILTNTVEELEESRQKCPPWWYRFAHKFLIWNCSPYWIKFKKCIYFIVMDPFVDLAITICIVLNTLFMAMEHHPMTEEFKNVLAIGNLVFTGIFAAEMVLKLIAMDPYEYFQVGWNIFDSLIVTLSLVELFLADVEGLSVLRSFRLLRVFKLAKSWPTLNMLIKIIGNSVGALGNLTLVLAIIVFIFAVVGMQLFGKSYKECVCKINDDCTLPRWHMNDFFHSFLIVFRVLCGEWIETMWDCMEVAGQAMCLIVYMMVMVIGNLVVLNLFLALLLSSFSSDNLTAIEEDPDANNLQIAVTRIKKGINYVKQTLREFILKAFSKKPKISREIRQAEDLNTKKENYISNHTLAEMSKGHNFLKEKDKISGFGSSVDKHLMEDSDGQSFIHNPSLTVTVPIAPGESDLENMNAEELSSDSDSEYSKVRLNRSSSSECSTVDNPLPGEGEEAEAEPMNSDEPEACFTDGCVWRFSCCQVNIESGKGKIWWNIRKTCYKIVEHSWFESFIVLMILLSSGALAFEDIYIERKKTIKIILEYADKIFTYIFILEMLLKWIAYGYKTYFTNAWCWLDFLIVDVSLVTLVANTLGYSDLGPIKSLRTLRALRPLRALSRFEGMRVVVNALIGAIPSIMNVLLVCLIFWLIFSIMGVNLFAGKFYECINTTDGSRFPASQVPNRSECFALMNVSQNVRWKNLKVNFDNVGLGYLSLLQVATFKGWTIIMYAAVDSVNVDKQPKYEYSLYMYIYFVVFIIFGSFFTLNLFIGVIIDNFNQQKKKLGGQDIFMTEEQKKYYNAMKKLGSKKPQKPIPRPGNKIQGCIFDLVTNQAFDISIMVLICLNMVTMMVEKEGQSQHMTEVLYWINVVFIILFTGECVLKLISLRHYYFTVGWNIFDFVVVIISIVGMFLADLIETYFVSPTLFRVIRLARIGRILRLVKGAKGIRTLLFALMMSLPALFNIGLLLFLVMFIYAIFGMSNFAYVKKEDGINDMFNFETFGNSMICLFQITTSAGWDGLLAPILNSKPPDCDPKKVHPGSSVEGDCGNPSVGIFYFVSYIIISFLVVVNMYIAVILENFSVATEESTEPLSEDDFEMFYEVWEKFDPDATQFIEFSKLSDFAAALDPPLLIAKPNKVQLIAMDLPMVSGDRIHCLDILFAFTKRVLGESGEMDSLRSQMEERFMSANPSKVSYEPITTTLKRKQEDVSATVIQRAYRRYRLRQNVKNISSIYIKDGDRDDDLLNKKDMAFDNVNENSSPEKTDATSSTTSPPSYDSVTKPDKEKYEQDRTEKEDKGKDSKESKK
As to conditions: max concentration tested 33750 nM, read-out: NaV1.7 (nM). The method, then:
as §1, §2, §3

A further test concerns the target NaV1.5 (Homo sapiens, UniProt Q14524). As to conditions: holding potential −80 mV; max concentration tested 33750 nM. The method, then:
as §2, §3

[3] abbreviates: holding potential −75 mV, −75 mV.
[4] abbreviates: holding potential −80 mV, −80 mV.

The structures appear in SMILES notation. Read-outs that look alike come from different tables or passages of the source.

T1 sequence (Q9UQD0 whole entry): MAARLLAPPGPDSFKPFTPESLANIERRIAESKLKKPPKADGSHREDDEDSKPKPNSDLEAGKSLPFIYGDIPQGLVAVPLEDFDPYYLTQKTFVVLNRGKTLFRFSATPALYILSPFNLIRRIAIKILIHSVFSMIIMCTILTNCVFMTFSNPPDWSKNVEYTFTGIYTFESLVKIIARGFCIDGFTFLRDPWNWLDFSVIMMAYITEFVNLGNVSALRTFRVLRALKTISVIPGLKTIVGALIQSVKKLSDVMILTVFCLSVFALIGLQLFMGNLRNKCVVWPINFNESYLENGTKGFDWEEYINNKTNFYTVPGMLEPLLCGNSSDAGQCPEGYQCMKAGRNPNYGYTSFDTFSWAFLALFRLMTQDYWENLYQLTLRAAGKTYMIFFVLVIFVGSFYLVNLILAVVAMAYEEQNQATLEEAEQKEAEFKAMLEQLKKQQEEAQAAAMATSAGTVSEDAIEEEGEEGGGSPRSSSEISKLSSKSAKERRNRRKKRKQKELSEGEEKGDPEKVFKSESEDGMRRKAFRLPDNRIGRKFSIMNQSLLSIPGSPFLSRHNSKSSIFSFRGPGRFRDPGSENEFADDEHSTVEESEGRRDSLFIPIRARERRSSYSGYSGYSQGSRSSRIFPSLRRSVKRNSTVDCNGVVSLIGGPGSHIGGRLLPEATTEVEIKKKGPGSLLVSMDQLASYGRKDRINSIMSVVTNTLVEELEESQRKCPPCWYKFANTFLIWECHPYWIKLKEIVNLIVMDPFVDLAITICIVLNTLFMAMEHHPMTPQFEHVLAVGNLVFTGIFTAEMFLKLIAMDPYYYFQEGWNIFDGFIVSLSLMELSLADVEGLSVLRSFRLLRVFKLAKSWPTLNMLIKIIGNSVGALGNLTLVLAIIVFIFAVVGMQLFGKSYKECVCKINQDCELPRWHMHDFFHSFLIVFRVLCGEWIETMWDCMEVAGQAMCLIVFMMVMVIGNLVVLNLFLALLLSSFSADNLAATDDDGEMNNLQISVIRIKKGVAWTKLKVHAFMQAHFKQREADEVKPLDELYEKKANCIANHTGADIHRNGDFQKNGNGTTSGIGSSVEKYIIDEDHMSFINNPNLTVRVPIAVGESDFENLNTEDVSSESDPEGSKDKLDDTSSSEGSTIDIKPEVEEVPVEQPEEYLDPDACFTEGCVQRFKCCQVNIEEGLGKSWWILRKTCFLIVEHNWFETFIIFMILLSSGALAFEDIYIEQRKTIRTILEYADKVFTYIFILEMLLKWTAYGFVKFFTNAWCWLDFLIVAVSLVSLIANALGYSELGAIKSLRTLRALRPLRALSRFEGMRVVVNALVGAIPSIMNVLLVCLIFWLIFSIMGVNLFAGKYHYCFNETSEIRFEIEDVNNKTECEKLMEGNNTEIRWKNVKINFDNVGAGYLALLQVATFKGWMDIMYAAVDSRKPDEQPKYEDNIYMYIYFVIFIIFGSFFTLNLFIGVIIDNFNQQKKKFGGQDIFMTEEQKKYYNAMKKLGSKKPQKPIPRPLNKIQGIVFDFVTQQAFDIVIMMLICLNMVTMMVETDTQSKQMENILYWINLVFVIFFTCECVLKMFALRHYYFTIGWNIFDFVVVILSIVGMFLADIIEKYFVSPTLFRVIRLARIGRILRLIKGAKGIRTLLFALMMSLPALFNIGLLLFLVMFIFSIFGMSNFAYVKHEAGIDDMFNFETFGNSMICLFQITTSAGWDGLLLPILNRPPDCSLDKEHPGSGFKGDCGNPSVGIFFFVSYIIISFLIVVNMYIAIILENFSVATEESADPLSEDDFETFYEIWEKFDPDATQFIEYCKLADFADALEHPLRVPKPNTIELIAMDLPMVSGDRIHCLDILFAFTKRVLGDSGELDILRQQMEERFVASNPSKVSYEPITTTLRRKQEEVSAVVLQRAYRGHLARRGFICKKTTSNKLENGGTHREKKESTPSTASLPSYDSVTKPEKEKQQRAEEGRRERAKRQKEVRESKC

As to `C[C@@H](N)[C@H](CNc1cc(F)c(S(=O)(=O)Nc2ncns2)cc1Cl)CC(N)C(F)(F)F` (single isomer, unassigned) [Example 1], the IC50 in test [1] came to 20400 nM; in test [2] (setting [3]) it was 203 nM. As for `C[C@@H](N)[C@H](CNc1cc(F)c(S(=O)(=O)Nc2ncns2)cc1Cl)CC(N)C(F)(F)F` (single isomer, unassigned) [Example 2], the IC50 in test [1] is 13800 nM; in test [2] (setting [3]) it was 84 nM; at NaV1.5 it was greater than 33800 nM. Taken in the same sequence, the figures for `C[C@@H](N)C(CNc1cc(F)c(S(=O)(=O)Nc2ncns2)cc1Cl)CC(C)(C)CN` (single isomer, unassigned) [Example 3] were greater than 33800 nM, 41 nM and greater than 33800 nM. On to `C[C@@H](N)C(COc1ncc(S(=O)(=O)Nc2ncc(F)s2)cc1Cl)CC1(CCN)CCC1` (single isomer, unassigned) [Example 6], for which the results for the IC50 in test [1] and in test [2] (setting [3]) were greater than 33800 nM and 93 nM, respectively. Taken in the same sequence, the figures for `C[C@@H](N)C(CNc1ncc(S(=O)(=O)Nc2ncc(F)s2)cc1Cl)CC1(CCN)CCC1` (single isomer, unassigned) [Example 8] were greater than 33800 nM and 18 nM. With `C[C@@H](N)C(CNc1cc(F)c(S(=O)(=O)Nc2ncns2)cc1F)CC1CC(C)(C)CN1` (single isomer, unassigned) [Example 14], the IC50 in test [2] (setting [4]) was greater than 33800 nM. With `C[C@@H](N)C(CNc1cc(F)c(S(=O)(=O)Nc2ncns2)cc1F)CC1CC(C)(C)CN1` (single isomer, unassigned) [Example 17], the IC50 in test [1] is greater than 33800 nM; in test [2] (setting [4]), 113 nM; against NaV1.5 it was greater than 33800 nM. In the case of `C[C@@H](N)[C@H](CNc1ccc(S(=O)(=O)Nc2ncns2)c(F)c1)CC(CCN)C1CC1` (single isomer, unassigned) [Example 19], the IC50 in test [1] is greater than 33800 nM; in test [2] (setting [3]) it was 31 nM; against NaV1.5, greater than 33800 nM. As to `C[C@@H](N)[C@H](CNc1ccc(S(=O)(=O)Nc2ncns2)c(F)c1)CC(CCN)C1CC1` (single isomer, unassigned) [Example 20], the IC50 in test [2] (setting [4]) came to 1390 nM. On the same count and under the same terms, then `CC[C@@H](N)C(CNc1cc(F)c(S(=O)(=O)Nc2ncns2)c(F)c1F)CC1(CCN)CCC1` (single isomer, unassigned) [Example 21], with 916 nM; and `C[C@@H](N)C(CNc1cc(F)c(S(=O)(=O)Nc2ncns2)cc1F)CC1CCCC12CNC2` (single isomer, unassigned) [Example 24], with greater than 33800 nM. As for `C[C@@H](N)[C@H](CNc1cc(F)c(S(=O)(=O)Nc2ncns2)cc1Cl)C[C@@H]1C[C@@H]1CN` (single isomer, unassigned) [Example 33], the figures for the IC50 in test [1] and in test [2] (setting [3]) were greater than 33800 nM and 156 nM, respectively. Taken in the same sequence, the figures for `CC(C)NCC(CNc1cc(F)c(S(=O)(=O)Nc2ncns2)cc1Cl)[C@@H](C)N` (single isomer, unassigned) [Example 37] were greater than 33800 nM and 6760 nM. Take `C[C@@H](N)[C@@H](CC(C)(C)CCN)C1CCc2cc(S(=O)(=O)Nc3ncns3)c(F)cc2O1` (single isomer, unassigned) [Example 41]: the IC50 in test [2] (setting [4]) is 13700 nM. `C[C@@H](N)C(CNc1cc(F)c(S(=O)(=O)Nc2ncns2)cc1F)CC1CCCC1CN` (single isomer, unassigned) [Example 47]: the IC50 in test [1] was greater than 33800 nM; in test [2] (setting [4]) it was 3610 nM. For the compound `C[C@@H](N)C(CNc1cc(F)c(S(=O)(=O)Nc2ncns2)cc1F)CC1(C)CCC1CN` (single isomer, unassigned) [Example 52], the IC50 in test [1] is greater than 33800 nM; in test [2] (setting [4]) it was 12300 nM. For `C[C@@H](N)C(CNc1cc(F)c(S(=O)(=O)Nc2ncns2)cc1F)CC1(C)CCC1CN` (single isomer, unassigned) [Example 55] the same measures were greater than 33800 nM and 1060 nM. As to `C[C@@H](N)C(CNc1cc(F)c(S(=O)(=O)Nc2ncns2)cc1Br)CC1(CCN)CC(F)(F)C1` (single isomer, unassigned) [Example 56], the IC50 in test [2] (setting [4]) was greater than 33800 nM. Regarding `C[C@@H](N)C(CNc1cc(F)c(S(=O)(=O)Nc2ncns2)cc1F)CC1CCCCC1CCN` (single isomer, unassigned) [Example 64], the results for the IC50 in test [1] and in test [2] (setting [4]) were greater than 33800 nM and 14600 nM, respectively. Taken in the same sequence, the figures for `C[C@@H](N)C(CNc1cc(F)c(S(=O)(=O)Nc2ncns2)cc1F)CC1CCCCC1CCN` (single isomer, unassigned) [Example 66] were greater than 33800 nM and 12600 nM.

For the compound `C[C@@H](N)C(CNc1cc(F)c(S(=O)(=O)Nc2ncns2)cc1F)CC1CCCCC1CCN` (single isomer, unassigned) [Example 67], the IC50 in test [1] and in test [2] (setting [4]) was greater than 33800 nM in each case. In the case of `C[C@@H](N)C(CNc1cc(F)c(S(=O)(=O)Nc2ncns2)cc1F)CC1CNCC1(C)C` (single isomer, unassigned) [Example 76], the IC50 in test [1] was greater than 33800 nM; in test [2] (setting [4]), 328 nM. For `COC(CN)C[C@@H](CNc1cc(F)c(S(=O)(=O)Nc2ncns2)cc1Br)[C@@H](C)N` (single isomer, unassigned) [Example 81] the same measures were greater than 33800 nM and 87 nM. As for `COC(CN)C[C@@H](CNc1cc(F)c(S(=O)(=O)Nc2ncns2)cc1Br)[C@@H](C)N` (single isomer, unassigned) [Example 82], the IC50 in test [2] (setting [4]) amounted to 1760 nM. Regarding `C[C@@H](N)C(CNc1ccc(S(=O)(=O)Nc2ncns2)cc1F)CC1(N)CCC1` (single isomer, unassigned) [Example 89], the IC50 in test [1] is greater than 33800 nM; in test [2] (setting [3]), 274 nM. `C[C@@H](N)C(COc1cc(F)c(S(=O)(=O)Nc2ncns2)cc1F)CC1(CCN)CCC1` (single isomer, unassigned) [Example 95]: the results for the IC50 in test [1] and in test [2] (setting [4]) were greater than 33800 nM and 4130 nM, respectively.

As for `C[C@@H](N)C(CNc1cc(F)c(S(=O)(=O)Nc2ncns2)cc1F)C[C@@]1(C)CCC[C@@H]1CN` (single isomer, unassigned) [Example 96], the IC50 in test [1] is greater than 33800 nM; in test [2] (setting [3]) it was 618 nM. `C[C@@H](N)C(CNc1cc(F)c(S(=O)(=O)Nc2ncns2)cc1F)C[C@]1(C)CCC[C@H]1CN` (single isomer, unassigned) [Example 98]: the figures for the IC50 in test [1] and in test [2] (setting [4]) were greater than 33800 nM and 2360 nM, respectively. As for `C[C@@H](N)C(CNc1cc(F)c(S(=O)(=O)Nc2ncns2)cc1F)C[C@]1(C)CCC[C@H]1CN` (single isomer, unassigned) [Example 99], the IC50 in test [1] was greater than 33800 nM; in test [2] (setting [4]), 450 nM.

Turning to `C[C@@H](N)C(CNc1cc(F)c(S(=O)(=O)Nc2ncns2)cc1Cl)CC1COCCN1` (single isomer, unassigned) [Example 101], the IC50 in test [1] was greater than 33800 nM; in test [2] (setting [3]) it was 84 nM. For `C[C@@H](N)C(CNc1cc(F)c(S(=O)(=O)Nc2ncns2)cc1Cl)CC1COCCN1` (single isomer, unassigned) [Example 104], the IC50 in test [1] is greater than 33800 nM; in test [2] (setting [3]) it was 305 nM. On to `CC(C)C(N)CC(CNc1cc(F)c(S(=O)(=O)Nc2ncns2)cc1Br)[C@@H](C)N` (single isomer, unassigned) [Example 108], for which the values for the IC50 in test [1] and in test [2] (setting [3]) were greater than 33800 nM and 17 nM, respectively. For `C[C@@H](N)[C@H](CNc1ncc(S(=O)(=O)Nc2ncns2)cc1C(F)(F)F)CC(C)(C)CCN` [Example 13, 6-(((S)-6-amino-2-((R)-1-aminoethyl)-4,4-dimethylhexyl)amino)-N-(1,2,4-thiadiazol-5-yl)-5-(trifluoromethyl)pyridine-3-sulfonamide] the same measures were greater than 33800 nM and 230 nM. Taken in the same sequence, the figures for `C[C@@H](N)[C@H](CNc1ncc(S(=O)(=O)Nc2ncns2)cc1C#N)CC(C)(C)CCN` [Example 31, 6-(((S)-6-amino-2-((R)-1-aminoethyl)-4,4-dimethylhexyl)amino)-5-cyano-N-(1,2,4-thiadiazol-5-yl)pyridine-3-sulfonamide] were greater than 33800 nM and 205 nM.

Consider `C[C@@H](N)[C@H](CNc1cc(F)c(S(=O)(=O)Nc2cccc(F)n2)cc1Cl)CC1(N)CCC1` [Example 105], for which the values for the IC50 in test [1] and in test [2] (setting [3]) were 8340 nM and 14 nM, respectively.

In the case of `Cc1csc(NS(=O)(=O)c2cc(Cl)c(NC[C@H](CC(C)(C)N)[C@@H](C)N)cc2F)n1` [Example 106], the IC50 in test [1] is greater than 33800 nM; in test [2] (setting [3]), 133 nM. Take `Cc1cc(S(=O)(=O)Nc2ncc(F)s2)c(F)cc1NC[C@H](CC(C)(C)N)[C@@H](C)N` [Example 107]: the IC50 in test [1] worked out at 3590 nM; in test [2] (setting [3]), 17 nM.

(Values after US12246008B2, “4-amino or 4-alkoxy-substituted aryl sulfonamide compounds with selective activity in voltage-gated sodium channels” (Merck Sharp & Dohme LLC, priority 2018, dated 2025).)
